Measurements: paper PMC11065314, “Identification of compounds that cause axonal dieback without cytotoxicity in dorsal root ganglia explants and intervertebral disc cells with potential to treat pain via denervation” (PLOS ONE, 2024)
“And” between values parts separate entries of the source, which are not always exact repeats. Identical values can stand only once. Counter-ions that a name gives are not always drawn.

How the values were obtained:
rat DRG explants = assay: DRG cytotoxicity assessment using LDH assay; type: cell-based; details: for Cytotoxicity (%): single well; for Overall cytotoxicity lower compared to lysed DRGs: all concentrations tested, day 3
Method: (§1) 500 nM Imy and 10 nM Vcr were excluded from female rat DRG experiments while 500 nM Vcr and 1 mM Pyr were excluded from male rat DRG experiments due to insufficient DRG replicates with axon outgrowth. DRG media was removed from wells and transferred into a 96-well plate for pre-treat LDH cytotoxicity assay (see Methods below). 300 μL of media treatment solutions or solvent control solutions were added to wells. DRGs were incubated with treatment solutions for three days, and brightfield images at 4X magnification were taken using BioTek Cytation1 Plate Imager (Agilent) before treatment (day -1) and on days 1, 2 and 3 after treatment. DRGs from adult male and female rats were tested to determine if sex can affect axonal dieback. In total, 12 to 15 DRG replicates per group by sex harvested from n = 3 male and n = 3 female rats were tested.
(§2) Lactate dehydrogenase (LDH) is a cytosolic enzyme present in all cells. Dissociated rat DRG neurons release LDH during tunicamycin-induced apoptosis. […] An ideal axonal dieback compound should cause axonal degeneration without neurotoxicity. was assessed on day 3 post-treat and normalized to pre-treat levels to account for variability in DRG size and growth and calculated as a percentage of cytotoxicity to lysed DRGs (positive control). 50 μL of pre-treatment and post-treatment media were aliquoted in duplicates into a 96-well plate. LDH activity in the media post-treat was assessed using the CyQUANT^TM LDH Cytotoxicity Assay Kit (Thermo Fisher Scientific, C20301) according to the manufacturer’s instructions. Briefly, 50 μL of Substrate Mix was added to each well and then incubated at room temperature for 30 minutes protected from light. 50 μL of Stop solution was added to each well and the absorbance at 490 nm and 680 nm was measured using a microplate reader (Agilent). LDH activity of each DRG was calculated as the difference between absorbance at 490 nm after subtracting the background absorbance at 680 nm. As a positive control, 13 female rat DRGs and 15 male rat DRGs were treated for three days with Lysis buffer solution, provided in the kit, diluted 1:5.45 in DRG media. The percentage of cytotoxicity was calculated following Eq 2. Pre-treat levels of LDH activity were subtracted from post-treat LDH activity in each DRG to remove baseline LDH activity then percentage of cytotoxicity compared to positive control lysed DRG LDH activity was calculated. Sex is a biological factor that can influence neurotoxicity. Thus, percentage of cytotoxicity of total 11 to 14 DRG replicates per group by sex from n = 3 male and n = 3 female rats were tested.
(§3) Cytotoxicity(%)=(PosttreatLDHactivity)−(PretreatLDHactivity)/(MaximumLDHactivityfromlysedDRGs)−(PretreatLDHactivity)×100% (2)

adult rat DRG explants = type: cell-based
[1] = tested on: dissociated neonatal DRG neurons; parameters: method as in PMID 7617165; details: 30 μM, within 24 hours; cited from earlier work
[2] = parameters: method as in PMID 30888737; details: intraarticular injection; cited from earlier work
sciatic nerves = tested on: sciatic nerves; parameters: method as in PMID 3126271; details: applied onto sciatic nerves; cited from earlier work
[3] = DRG cytotoxicity assessment using LDH assay; type: cell-based, rat; details: female, rat, rat dorsal root ganglion (DRG) explants, female rat DRG explant, single well
Method: as §1, §2, §3

Human NP cells [4] = assay: NP cell metabolic activity (AlamarBlue reduction); type: cell-based;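 on AB reduction per cell (%): percent AlamarBlue reduction per manufacturer divided by estimated total cells per well from LIVE/DEAD counts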
Method: (§4) Nucleus pulposus (NP) cells are native matrix-producing cells at the core of intervertebral discs. To repurpose axonal dieback compounds to denervate aberrant nerve fibers in discs related to chronic LBP, the cytocompatibility of these compounds with NP cells must be evaluated. Human NP cells (Sciencell, 4800) from donor 1 (Lot #5954) and donor 2 (Lot# 21579) were cultured according to previously established protocol in our lab adapted from manufacturer’s instructions. Briefly, passage three cells from both donors were expanded in Poly-L-lysine (PLL) (Sciencell, 413) coated T75 flasks. Cells were then lifted and reseeded at 5,000 cells/cm^2 onto two PLL-coated 48-well plates (Greiner Bio-One, 677180) and allowed to attach overnight before treating with Pyr or Vcr. One plate was used for LIVE/DEAD staining and the other plate was used for AlamarBlue assay as described below. Complete NP cell media (Sciencell, 4801) containing basal media supplemented with 1% penicillin-streptomycin, 1% growth supplement and 2% FBS were used for maintaining cells in culture. To mimic the hypoxic disc environment, NP cells were cultured in a hypoxia chamber (Stem Cell Technologies, 27310) with 5% CO2, 3.5% O2, 91.5% N2 (Airgas) during the entire culture and treatment incubation period.
(§5) Pyr stock solution was diluted in complete NP media to achieve final concentrations of 500 μM, 1 mM and 2 mM Pyr. 16.9 μg/mL and 169 μg/mL Vcr stock solutions were prepared in 1X PBS then diluted in complete NP media to achieve final concentrations of 10, 25, 50, 100 nM and 200, 500 nM, respectively. Cells were incubated with 250 μL of final treatment solutions in duplicate wells per donor for three days. Cells in negative control group were incubated with 250 μL of complete NP media with 0.55% v/v 1X PBS as solvent control. On day 3 post-treatment, brightfield images at 4X magnification were taken using a BioTek Cytation1 Plate Imager (Agilent) to verify cell proliferation and observe cell morphology. Three experimental replicates were performed for each cell donor.
On day 3 of incubation with drugs, 25 μL (10% v/v of media volume) of AlamarBlue HS cell viability reagent (Thermo Fisher Scientific, A50100) were added into each well. Cells were incubated with the AlamarBlue reagent for 2 hours at 37°C under hypoxia then 60 μL aliquots of cell media were removed in duplicates into a 96-well plate. The absorbance at 570 and 600 nm were read using a microplate reader (Agilent) and calculations for AlamarBlue reduction were calculated according to the manufacturer’s protocol. To account for different cell confluency between donors and groups, AlamarBlue reduction was normalized to estimated total number of cells per well obtained from LIVE/DEAD staining. Cellular metabolic activity in treated groups was reported as a ratio of normalized AlamarBlue reduction to PBS control group.

Human NP cells [5] = assay: Quantification of viable NP cells (LIVE/DEAD staining); type: cell-based
Method: as §4, §5
(§6) On day 3 of incubation with drug, media treatment solutions were removed from each well and cells were carefully rinsed with 200 μL of sterile 1X PBS to remove excess media. NP cells were stained with 150 μL of 2 μM Calcein AM and 6 μM EtHD-1 solution from LIVE/DEAD Viability/Cytotoxicity Kit (Thermo Fisher Scientific, L3224) for 30 minutes at room temperature protected from light. After staining, cells were gently rinsed with 200 μL sterile 1X PBS to remove excess staining solution. Excitation and emission wavelengths for live cell fluorescence is 495 and 515 nm and dead cell fluorescence is 495 and 635 nm. Using a BioTek Cytation1 Plate Imager (Agilent), GFP filter cube (Agilent, 1225101, ex: 451.5–486.5 nm, em: 505.5–544.5 nm) and RFP filter cubes (Agilent, 1225103, ex: 511-551nm, em: 573–613 nm), fluorescent images at 4X magnification of four regions per well were taken. Gen5 v3.11 software (Agilent) was used to count green (live) and orange (dead) cells in fluorescent images. Dead NP cell staining was verified and evident by positive EtHD-1 orange staining in kill control wells where cells were treated with 70% EtOH for 10 minutes (S4 Fig). Percentage of live cells were calculated by calculating the percentage of live cells over total cell counts as shown in Eq 3.
(§7) Cellviability(%)=Livecellcounts/Livecellcounts+Deadcellcounts×100% (3)

[6] = as above; type: cell-based, human; details: both sexes, human; 500 μM, 1 mM and 2 mM, day 3 post-treatment, either donor; read-out: Percentage of viable cells
Method: as §4, §5, §6, §7

[7] = 500 µM, donor 1, day 3, single wells (Exp, Rep)
[8] = 500 µM, donor 2, day 3, single wells (Exp, Rep)
[9] = 1 mM, donor 1, day 3, single wells (Exp, Rep)
[10] = 1 mM, donor 2, day 3, single wells (Exp, Rep)
[11] = 2 mM, donor 1, day 3, single wells (Exp, Rep)

**Q.** What does the source list for `COc1cc(CNC(=O)CCCC/C=C/C(C)C)ccc1O` [Caps, capsaicin]?
**A.** Percentage of cytotoxicity lower than in lysed DRGs (rat DRG explants; 3.79 mM, 3-day incubation): 90.2%; Cytotoxicity (%) (rat DRG explants; 3.79 mM, male rat DRG explant): 16.4427%; Overall cytotoxicity lower compared to lysed DRGs (rat DRG explants): at least 88%; Median axon length ratio (interquartile range) (adult rat DRG explants): 0.657 (0.359–0.750) and 0.453 (0.270–0.624); Cell death [1]: induced significant cell death; Duration of alleviation of knee pain [2]: about 18 weeks

**Q.** Which “Fibers exhibiting large nerve lesions” value (sciatic nerves) does the source give for `C[C@H](CCC(=O)O)C[C@H](C)C[C@H](C)C(=O)/C=C(\O)[C@H](C)C[C@H](C)C/C=C/[C@@H](C)[C@@H](O)[C@@H](C)[C@@H](O)C[C@@H]1CC[C@@](C)([C@H]2CC[C@@](C)([C@@H](C)O)O2)O1` [Imy, Ionomycin] here?
**A.** up to 95%

**Q.** What about the “Cytotoxicity (%)” value (rat DRG explants; 0.77 µM, female rat DRG explant) of the same molecule?
**A.** 6.379% and 11.5202%

**Q.** And the “Overall cytotoxicity lower compared to lysed DRGs” value (rat DRG explants)?
**A.** at least 88%

**Q.** What about the cytotoxicity at 3 days, 0.77 µM ([3]; 0.77 µM) of the same molecule?
**A.** 8.76%

**Q.** What about the “Change in axon length ratio between timepoints” value (adult rat DRG explants) of the same molecule?
**A.** no significant differences were observed between timepoints

**Q.** And the “Decrease in axon length” value (adult rat DRG explants)?
**A.** 10%

**Q.** What about the “Median axon length ratio (interquartile range)” value (adult rat DRG explants) of the same molecule?
**A.** 0.977 (0.852–1.004) and 0.9 (0.75–0.985) and 0.982 (0.854–1.121)

**Q.** Which results are given for `Cc1ncc(CO)c(CO)c1O` [Pyr, Pyridoxine hydrochloride]?
**A.** Cytotoxicity (%) (rat DRG explants; 50 µM, female rat DRG explant): 1.523% and -1.428% and 2.095%; Cytotoxicity (%) (rat DRG explants; 500 µM, female rat DRG explant): 8.854% and 7.426%; Cytotoxicity (%) (rat DRG explants; 1 mM, female rat DRG explant): 4.951% and 3.523%; cytotoxicity at 3 days, 500 µM ([3]; 500 µM): 5.33%; cytotoxicity at 3 days, 1 mM ([3]; 1 mM): 3.24%; AlamarBlue reduction normalized to cell counts compared to PBS control (Human NP cells [4]; 500 μM, 1 mM and 2 mM, day 3): not significantly different between PBS control and all treated groups; AB reduction per cell (%) (Human NP cells [4]; [7]): 0.001757% and 0.001402% and 0.001221% and 0.001189% and 0.001666% and 0.001549%; AB reduction per cell (%) (Human NP cells [4]; [8]): 0.002098% and 0.001803% and 0.002358% and 0.001696% and 0.002473% and 0.003239%; AB reduction per cell (%) (Human NP cells [4]; [9]): 0.001279% and 0.001156% and 0.001657% and 0.001546%; AB reduction per cell (%) (Human NP cells [4]; [10]): 0.001937% and 0.002155% and 0.002387% and 0.003301%; AB reduction per cell (%) (Human NP cells [4]; [11]): 0.002206% and 0.002078% and 0.002787% and 0.003671% and 0.002259% and 0.001426%; AB reduction per cell (%) (Human NP cells [4]; 2 mM, donor 2, day 3, single wells (Exp, Rep)): 0.00138% and 0.001132% and 0.01401% and 0.003735% and 0.006792% and 0.003692%; Axonal dieback over time and against solvent control (adult rat DRG explants): did not induce significant axonal dieback; Day on which Caps axon length ratio threshold (0.45) was met (adult rat DRG explants): ≤ 2 days; Median axon length ratio (interquartile range) (adult rat DRG explants): 0.607 (0.418–0.875) and 0.539 (0.317–0.676) and 0.451 (0.347–0.587); Percent live (%) (Human NP cells [5]; [7]): 99.8382% and 99.8845% and 99.1403% and 98.8605% and 99.9471% and 98.2749%; Percent live (%) (Human NP cells [5]; [8]): 97.5506% and 96.954% and 96.3405% and 99.1395% and 96.5794% and 98.8823%; Percent live (%) (Human NP cells [5]; [9]): 99.8893% and 99.7678% and 99.8269% and 99.7809%; Percent live (%) (Human NP cells [5]; [10]): 96.1436% and 95.9726% and 96.9575% and 96.5249%; Percent live (%) (Human NP cells [5]; [11]): 98.6699% and 99.5161% and 83.5317% and 86.125% and 97.6421% and 98.8217%; viability at 3 days [6]: > 89%
